Experimental findings from ChEMBL document CHEMBL2375345, “New antiprotozoal agents: their synthesis and biological evaluations” (Bioorg Med Chem Lett, 2013) are described below.

The nature of data set [1]: Cytotoxicity against human MRC5 cells assessed as cell viability after 7 days by Alamar blue assay. It counts as cell-based. A general note: The colour change of resazurin is a common sign of viable cells or microbes.
A short description of data set [2]: Lipophilicity, log P of the compound. It counts as physicochemical. The note with it: octanol/water.
Data set [3] has as its system Trypanosoma brucei rhodesiense. In words: Antiprotozoal activity against trypomastigote form of Trypanosoma brucei rhodesiense STIB900 assessed as parasite growth inhibition after 72 hrs by Alamar blue assay. It counts as functional, organism-based. To be noted: STIB900, 72 h.
The nature of data set [4]: Selectivity index, ratio of CC50 for human MRC5 cells to IC50 for trypomastigote form of Trypanosoma brucei brucei 427. It counts as functional.
The subject of the next data set is Leishmania infantum. Briefly: Antiprotozoal activity against amastigote form of Leishmania infantum MHOM/MA(BE)/67 infected in mouse peritoneal macrophages assessed as reduction of intracellular parasite burden after 5 days by Giemsa staining method. It counts as functional, organism-based. To be noted: MHOM/MA(BE)/67, 120 h.
Data set [5] relates to Trypanosoma brucei brucei. In words: Antiprotozoal activity against trypomastigote form of Trypanosoma brucei brucei 427 assessed as parasite growth inhibition. It counts as functional, organism-based.
Data set [6] can be described thus: Selectivity index, ratio of CC50 for human MRC5 cells to IC50 for amastigote form of Leishmania infantum MHOM/MA(BE)/67. It counts as functional.
Data set [7] in a line: Selectivity index, ratio of CC50 for human MRC5 cells to IC50 for trypomastigote form of Trypanosoma brucei rhodesiense STIB900. It counts as functional.
Data set [8] deals with Trypanosoma cruzi. Briefly: Antiprotozoal activity against epimastigote form of Trypanosoma cruzi Tulahuen 2 assessed as parasite growth inhibition measured at day 5. It counts as functional, organism-based. The note with it: Tulahuen 2, 120 h.
The nature of data set [9]: Selectivity index, ratio of CC50 for human MRC5 cells to IC50 for epimastigote form of Trypanosoma cruzi Tulahuen 2. It counts as functional.
The nature of data set [10]: Cytotoxicity against mouse peritoneal macrophages. To be noted: peritoneal macrophage cell. It counts as cell-based.
The test system of the next data set is Leishmania donovani. In words: Antiprotozoal activity against […] form of Leishmania donovani infected in primary macrophages assessed as reduction in intracellular parasite level after 90 mins by Giemsa staining method. It counts as functional, organism-based. To be noted: 1.5 h.
Data set [11] deals with Trypanosoma cruzi. Briefly: Antiprotozoal activity against trypomastigote form of Trypanosoma cruzi Colombian infected in BALB/c mouse assessed as decrease in parasitemia at 100 mg/kg, po administered for 1 week followed by weekly administration measured after 8 months. The note with it: 168 h.
The subject of data set [12] is Trypanosoma cruzi. Briefly: Trypanocidal activity against Trypanosoma cruzi.

As to `OC(c1ccccc1)c1c(C(F)(F)F)nc2ccc(Br)cc2c1Br` (stereo not given), the CC50 (usually the concentration that lowers cell viability or growth by half) at 168 h in data set [1] is 1.51 µM. In addition, the logP (as a rule, a log measure of how a compound divides between an organic and an aqueous phase) in [2] was found to be 6.26. Moreover, the half-maximal inhibitory concentration (IC50) (as a rule, the point on the concentration scale where inhibition reaches its midpoint) is 5.94 µM in [3], 8.11 µM with Leishmania infantum, 7.52 µM in data set [5] and 8.07 µM in the data set with Trypanosoma cruzi [8]. The “Ratio CC50/IC50” value in data set [4] was 0.2; in data set [6] it was 0.19; in data set [7] it was 0.25; in data set [9] it was 0.19.
Regarding `COc1nc2ccc(Br)cc2c2c1C(C)(OCC(O)CN)c1ccccc1-2` (stereo not given), the CC50 at 168 h in data set [1] turned out to be 1.36 µM. Also, the logP in data set [2] came out at 3.46. The IC50 was determined as 0.25 µM in [3], 0.4 µM in the data set with Leishmania infantum, 0.25 µM in data set [5] and 0.47 µM in the data set on Trypanosoma cruzi [8]. Further, the “Ratio CC50/IC50” value in data set [4] is 5.44; in data set [6], 3.4; in [7] it was 5.44; in data set [9] it was 2.89. Moreover, the Activity result in data set [10] is on record as “Non-toxic”.
Take `COc1ccccc1NC(=O)NCC(O)COC1(C)c2ccccc2-c2c1c(OC)nc1ccc(Br)cc21` (stereo not given): the CC50 at 168 h in [1] was determined as 5.31 µM. For the same compound, the logP in [2] was determined as 4.84. Further, the IC50 in data set [3] was found to be 1.88 µM; in the data set on Leishmania infantum it was 9.51 µM; in [5], 8.23 µM; in the data set on Trypanosoma cruzi [8] it was 2.5 µM. Besides, the “Ratio CC50/IC50” value in [4] is given as 0.64; in [6], 0.56; in [7], 2.82; in [9], 2.12.
In the case of `O=C1c2ccccc2-c2c1c(Nc1ccncc1)nc1ccc(Br)cc21`, in [1], the CC50 at 168 h amounted to 0.75 µM. The compound further came in with a logP in [2] of 4.64. Besides, the IC50 in data set [3] turned out to be 0.25 µM; in the data set with Leishmania infantum, 5.08 µM; in [5], 0.56 µM; in the data set on Trypanosoma cruzi [8], 0.25 µM. Further, the “Ratio CC50/IC50” value in data set [4] came out at 1.34; in data set [6] it was 0.15; in data set [7], 3; in [9], 3. The Activity entry in [10] is given as “Non-toxic”.
Regarding `COc1nc2ccc(Br)cc2cc1C(c1ccccc1)n1ccnc1` (stereo not given), in [1], the CC50 at 168 h is 30.8 µM. Further, in [2], the logP was found to be 4.52. Besides, the IC50 in [3] was 8.43 µM; with Leishmania infantum, 25.4 µM; in data set [5], 32.7 µM; in the data set with Trypanosoma cruzi [8], 0.46 µM. Also, the “Ratio CC50/IC50” value was determined as 0.943 in [4], 1.21 in data set [6], 3.65 in data set [7] and 67.02 in data set [9].
Take `CC(O)c1cc(F)ccc1Oc1nc2ccc(NC(=O)Nc3cccc([N+](=O)[O-])c3)cc2cc1Cc1ccccc1` (stereo not given): in data set [1], the CC50 at 168 h turned out to be 2.2 µM. In [2], this compound returned a logP of 6.84. The IC50 in [3] came out at 0.25 µM; in the data set with Leishmania infantum it was 1.7 µM; in data set [5], 0.51 µM; in the data set with Trypanosoma cruzi [8] it was 1 µM. The Ratio CC50/IC50 in [4] turned out to be 4.31; in data set [6], 1.29; in data set [7] it was 8.8; in data set [9], 2.15. The Activity result in data set [10] was “Non-toxic”.
For the compound `COc1ccccc1NC(=O)Nc1ccc2nc(Oc3ccc(F)cc3C(C)O)c(Cc3ccccc3)cc2c1` (stereo not given), in data set [1], the CC50 at 168 h came out at 6.21 µM. The logP in data set [2] stood at 6.72. The concentration for half-maximal inhibition (IC50) in data set [3] worked out at 0.25 µM; in the data set on Leishmania infantum, 3.17 µM; in data set [5] it was 0.65 µM; in the data set with Trypanosoma cruzi [8] it was 2.89 µM. The Ratio CC50/IC50 in data set [4] is 9.55; in data set [9] it was 2.16. In addition, the Activity result in data set [10] is “Non-toxic”.
As for `O=[N+]([O-])c1ccc2nc(Oc3ccc(F)cc3C(O)Cn3ccnc3)c(Cc3ccccc3)cc2c1` (stereo not given), the CC50 at 168 h in [1] was 31.4 µM. Also, the IC50 in data set [3] was determined as 1.81 µM; in the data set with Leishmania infantum, 2.52 µM; in data set [5], 2.18 µM; in the data set with Trypanosoma cruzi [8] it was 0.25 µM. In addition, the “Ratio CC50/IC50” value in data set [4] was found to be 14.42; in [6] it was 12.47; in [7], 17.37; in data set [9], 125.76. In addition, the Activity entry in data set [10] was “Non-toxic”.
As for `COc1ccc(NC(=S)Nc2ccc3nc(Oc4ccc(F)cc4C(C)O)c(Cc4ccccc4)cc3c2)cc1` (stereo not given), in data set [1], the CC50 at 168 h was 42.3 µM. In addition, in [2], the logP is 7.86. Moreover, the IC50 stood at 1.31 µM in data set [3], 8.11 µM in the data set with Leishmania infantum, 2.09 µM in data set [5] and 5.81 µM in the data set with Trypanosoma cruzi [8]. In addition, the “Ratio CC50/IC50” value in data set [4] was 31.37; in [6] it was 7.89; in data set [7], 30.91; in data set [9], 10.27.
`COc1nc2ccc(Br)cc2c2c1C(C)(OCC(O)CN1CCN(Cc3ccccc3)CC1)c1ccccc1-2` (mixture of isomers): the CC50 at 168 h in data set [1] amounted to 5.63 µM. This compound displayed a logP in data set [2] of 5.85. The IC50 in data set [3] was 1.99 µM; in the data set with Leishmania infantum, 9.51 µM; in data set [5] it was 2.24 µM; in the data set with Trypanosoma cruzi [8], 7.25 µM. Besides, the “Ratio CC50/IC50” value is listed as 2.51 in data set [4], 0.59 in [6], 2.83 in data set [7] and 0.77 in [9].
Regarding `COc1nc2ccc(Br)cc2c2c1C(C)(OCC(O)CN1CCN(C(c3ccccc3)c3ccccc3)CC1)c1ccccc1-2` (mixture of isomers), in data set [1], the CC50 at 168 h stood at 17.6 µM. For the same compound, in data set [2], the logP was determined as 7.56. The half-inhibitory concentration (IC50) in data set [3] was 1.64 µM; in the data set on Leishmania infantum, 8.11 µM; in [5], 2.04 µM; in the data set on Trypanosoma cruzi [8], 5.85 µM. In addition, the “Ratio CC50/IC50” value was 8.6 in [4], 2.16 in data set [6], 10.7 in data set [7] and 3 in data set [9].
Regarding `C[C@@H]1[C@H](O)[C@@H](C)/C=C/C=C/C=C/C=C/C=C/C=C/C=C/[C@H](O[C@@H]2O[C@H](C)[C@@H](O)[C@H](N)[C@@H]2O)C[C@@H]2O[C@](O)(C[C@@H](O)C[C@@H](O)[C@H](O)CC[C@@H](O)C[C@@H](O)CC(=O)O[C@H]1C)C[C@H](O)[C@H]2C(=O)O` [AMPHOTERICIN B], the IC50 in the data set with Leishmania donovani is 0.25 µM.
Consider `O=C(Cn1ccnc1[N+](=O)[O-])NCc1ccccc1` [BENZNIDAZOLE], for which the IC50 in the data set with Trypanosoma cruzi [11] amounted to 3.66 µM.
In the case of `CC1CS(=O)(=O)CCN1/N=C/c1ccc([N+](=O)[O-])o1` (stereo not given) [NIFURTIMOX], in the data set on Trypanosoma cruzi [12], 1.8 µM corresponded to half-maximal inhibition (IC50).
